Data on two molecules can be found in ChEMBL document CHEMBL5653615 (J Biol Chem, 2013).

Test [1] concerns the target Homeodomain-interacting protein kinase 2 (Homo sapiens) (UniProt Q9H2X6). In words: Inhibition of human HIPK2 at 18.6 nM by HotSpot assay relative to control.
For test [2], the target named is T1, Ephrin type-A receptor 1 (Homo sapiens) (UniProt P21709).
T1 sequence (whole entry): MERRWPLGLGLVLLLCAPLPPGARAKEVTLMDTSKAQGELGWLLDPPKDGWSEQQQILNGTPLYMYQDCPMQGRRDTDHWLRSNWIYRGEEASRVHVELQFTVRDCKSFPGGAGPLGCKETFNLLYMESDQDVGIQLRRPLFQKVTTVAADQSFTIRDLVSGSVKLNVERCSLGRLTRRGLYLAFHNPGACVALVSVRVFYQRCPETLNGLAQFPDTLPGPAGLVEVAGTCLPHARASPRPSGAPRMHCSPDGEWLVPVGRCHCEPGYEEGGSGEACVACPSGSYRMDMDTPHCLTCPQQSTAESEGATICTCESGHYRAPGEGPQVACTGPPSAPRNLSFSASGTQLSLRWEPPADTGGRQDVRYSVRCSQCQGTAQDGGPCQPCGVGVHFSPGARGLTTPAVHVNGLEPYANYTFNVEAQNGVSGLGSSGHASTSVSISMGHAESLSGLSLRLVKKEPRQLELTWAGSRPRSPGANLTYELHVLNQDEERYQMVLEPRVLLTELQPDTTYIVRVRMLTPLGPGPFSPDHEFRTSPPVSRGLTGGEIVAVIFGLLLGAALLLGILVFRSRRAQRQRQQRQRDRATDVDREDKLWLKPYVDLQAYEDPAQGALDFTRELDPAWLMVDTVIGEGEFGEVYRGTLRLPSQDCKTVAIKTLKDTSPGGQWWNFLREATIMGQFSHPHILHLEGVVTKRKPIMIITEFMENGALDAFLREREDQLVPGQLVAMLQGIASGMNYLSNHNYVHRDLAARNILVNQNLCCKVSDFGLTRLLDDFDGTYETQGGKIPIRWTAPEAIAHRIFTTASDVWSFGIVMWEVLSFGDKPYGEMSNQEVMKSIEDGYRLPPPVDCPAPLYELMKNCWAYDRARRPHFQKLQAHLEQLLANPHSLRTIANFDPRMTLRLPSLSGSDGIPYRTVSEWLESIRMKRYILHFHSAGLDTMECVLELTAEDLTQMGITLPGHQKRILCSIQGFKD
Description: Inhibition of human EPHA1 at 18.6 nM by HotSpot assay relative to control.

For test [3], the target named is T2, cGMP-dependent protein kinase 1 (Homo sapiens) (UniProt Q13976).
T2 sequence (whole entry): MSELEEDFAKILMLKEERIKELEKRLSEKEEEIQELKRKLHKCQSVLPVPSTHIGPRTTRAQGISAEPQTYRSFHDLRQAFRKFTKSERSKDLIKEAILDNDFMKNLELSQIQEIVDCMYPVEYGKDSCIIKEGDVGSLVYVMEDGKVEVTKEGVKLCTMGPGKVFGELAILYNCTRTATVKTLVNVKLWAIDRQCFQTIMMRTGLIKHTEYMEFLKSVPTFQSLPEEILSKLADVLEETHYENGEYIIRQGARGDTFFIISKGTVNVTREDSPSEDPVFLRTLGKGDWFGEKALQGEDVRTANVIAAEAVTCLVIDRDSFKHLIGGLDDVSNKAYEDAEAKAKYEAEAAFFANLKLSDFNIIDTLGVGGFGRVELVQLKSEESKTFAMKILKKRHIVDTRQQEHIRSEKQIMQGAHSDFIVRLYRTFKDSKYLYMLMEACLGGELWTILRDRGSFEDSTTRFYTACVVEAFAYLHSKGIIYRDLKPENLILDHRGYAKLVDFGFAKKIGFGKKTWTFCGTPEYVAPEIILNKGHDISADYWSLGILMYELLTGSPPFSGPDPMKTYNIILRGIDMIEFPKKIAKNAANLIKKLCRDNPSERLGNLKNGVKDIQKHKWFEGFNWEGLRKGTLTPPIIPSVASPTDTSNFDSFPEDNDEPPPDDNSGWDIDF
Description: Inhibition of human PKG1b at 18.6 nM by HotSpot assay relative to control.

Test [4] addresses T3, Serine/threonine-protein kinase DCLK2 (Homo sapiens) (UniProt Q8N568).
T3 sequence (whole entry): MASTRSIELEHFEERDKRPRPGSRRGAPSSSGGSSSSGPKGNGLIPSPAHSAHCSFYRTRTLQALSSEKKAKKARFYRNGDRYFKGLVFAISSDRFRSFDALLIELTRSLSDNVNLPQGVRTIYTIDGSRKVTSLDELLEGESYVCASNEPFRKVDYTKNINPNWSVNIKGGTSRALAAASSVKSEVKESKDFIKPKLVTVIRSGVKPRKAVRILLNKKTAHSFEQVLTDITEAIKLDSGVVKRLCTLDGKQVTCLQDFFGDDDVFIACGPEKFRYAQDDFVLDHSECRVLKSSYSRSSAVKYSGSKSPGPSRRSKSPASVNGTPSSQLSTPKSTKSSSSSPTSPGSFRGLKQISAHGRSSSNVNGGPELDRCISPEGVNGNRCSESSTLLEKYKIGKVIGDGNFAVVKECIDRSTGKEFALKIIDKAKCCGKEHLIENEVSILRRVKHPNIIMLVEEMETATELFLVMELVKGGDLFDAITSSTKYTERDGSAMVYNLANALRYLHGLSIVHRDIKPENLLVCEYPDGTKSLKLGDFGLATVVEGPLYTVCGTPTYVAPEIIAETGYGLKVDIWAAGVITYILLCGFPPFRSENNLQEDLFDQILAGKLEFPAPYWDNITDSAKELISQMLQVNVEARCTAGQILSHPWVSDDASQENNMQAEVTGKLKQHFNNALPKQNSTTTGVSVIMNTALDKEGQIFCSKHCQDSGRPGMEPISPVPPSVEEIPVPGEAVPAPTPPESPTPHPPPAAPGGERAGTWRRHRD
Description: Inhibition of human DCAMKL2 at 18.6 nM by HotSpot assay relative to control.

Test [5] addresses Serine/threonine-protein kinase PAK 3 (Homo sapiens) (UniProt O75914). Description: Inhibition of human PAK3 at 18.6 nM by HotSpot assay relative to control.
For test [6], the target named is Glycogen synthase kinase-3 beta (Homo sapiens) (UniProt P49841). Description: Inhibition of human GSK3b at 1.82 nM by HotSpot assay relative to control.
Test [7] deals with Serine/threonine-protein kinase WNK2 (Homo sapiens) (UniProt Q9Y3S1). In words: Inhibition of human WNK2 at 1.82 nM by HotSpot assay relative to control.
For test [8], the target named is Serine/threonine-protein kinase Nek7 (Homo sapiens) (UniProt Q8TDX7). Description: Inhibition of human NEK7 at 1.82 nM by HotSpot assay relative to control.
Test [9] has as its target Cyclin-dependent kinase 4/cyclin D1 (Homo sapiens) (UniProt P11802+P24385). Description: Inhibition of human CDK4/cyclin D1 at 1.82 nM by HotSpot assay relative to control. Type of test: protein-complex assay.
Test [10] deals with Dual specificity tyrosine-phosphorylation-regulated kinase 1A (Homo sapiens) (UniProt Q13627). In words: Inhibition of human DYRK1 at 1.82 nM by HotSpot assay relative to control.

Sequence of Serine/threonine-protein kinase WNK2 (Homo sapiens) (Q9Y3S1 whole entry): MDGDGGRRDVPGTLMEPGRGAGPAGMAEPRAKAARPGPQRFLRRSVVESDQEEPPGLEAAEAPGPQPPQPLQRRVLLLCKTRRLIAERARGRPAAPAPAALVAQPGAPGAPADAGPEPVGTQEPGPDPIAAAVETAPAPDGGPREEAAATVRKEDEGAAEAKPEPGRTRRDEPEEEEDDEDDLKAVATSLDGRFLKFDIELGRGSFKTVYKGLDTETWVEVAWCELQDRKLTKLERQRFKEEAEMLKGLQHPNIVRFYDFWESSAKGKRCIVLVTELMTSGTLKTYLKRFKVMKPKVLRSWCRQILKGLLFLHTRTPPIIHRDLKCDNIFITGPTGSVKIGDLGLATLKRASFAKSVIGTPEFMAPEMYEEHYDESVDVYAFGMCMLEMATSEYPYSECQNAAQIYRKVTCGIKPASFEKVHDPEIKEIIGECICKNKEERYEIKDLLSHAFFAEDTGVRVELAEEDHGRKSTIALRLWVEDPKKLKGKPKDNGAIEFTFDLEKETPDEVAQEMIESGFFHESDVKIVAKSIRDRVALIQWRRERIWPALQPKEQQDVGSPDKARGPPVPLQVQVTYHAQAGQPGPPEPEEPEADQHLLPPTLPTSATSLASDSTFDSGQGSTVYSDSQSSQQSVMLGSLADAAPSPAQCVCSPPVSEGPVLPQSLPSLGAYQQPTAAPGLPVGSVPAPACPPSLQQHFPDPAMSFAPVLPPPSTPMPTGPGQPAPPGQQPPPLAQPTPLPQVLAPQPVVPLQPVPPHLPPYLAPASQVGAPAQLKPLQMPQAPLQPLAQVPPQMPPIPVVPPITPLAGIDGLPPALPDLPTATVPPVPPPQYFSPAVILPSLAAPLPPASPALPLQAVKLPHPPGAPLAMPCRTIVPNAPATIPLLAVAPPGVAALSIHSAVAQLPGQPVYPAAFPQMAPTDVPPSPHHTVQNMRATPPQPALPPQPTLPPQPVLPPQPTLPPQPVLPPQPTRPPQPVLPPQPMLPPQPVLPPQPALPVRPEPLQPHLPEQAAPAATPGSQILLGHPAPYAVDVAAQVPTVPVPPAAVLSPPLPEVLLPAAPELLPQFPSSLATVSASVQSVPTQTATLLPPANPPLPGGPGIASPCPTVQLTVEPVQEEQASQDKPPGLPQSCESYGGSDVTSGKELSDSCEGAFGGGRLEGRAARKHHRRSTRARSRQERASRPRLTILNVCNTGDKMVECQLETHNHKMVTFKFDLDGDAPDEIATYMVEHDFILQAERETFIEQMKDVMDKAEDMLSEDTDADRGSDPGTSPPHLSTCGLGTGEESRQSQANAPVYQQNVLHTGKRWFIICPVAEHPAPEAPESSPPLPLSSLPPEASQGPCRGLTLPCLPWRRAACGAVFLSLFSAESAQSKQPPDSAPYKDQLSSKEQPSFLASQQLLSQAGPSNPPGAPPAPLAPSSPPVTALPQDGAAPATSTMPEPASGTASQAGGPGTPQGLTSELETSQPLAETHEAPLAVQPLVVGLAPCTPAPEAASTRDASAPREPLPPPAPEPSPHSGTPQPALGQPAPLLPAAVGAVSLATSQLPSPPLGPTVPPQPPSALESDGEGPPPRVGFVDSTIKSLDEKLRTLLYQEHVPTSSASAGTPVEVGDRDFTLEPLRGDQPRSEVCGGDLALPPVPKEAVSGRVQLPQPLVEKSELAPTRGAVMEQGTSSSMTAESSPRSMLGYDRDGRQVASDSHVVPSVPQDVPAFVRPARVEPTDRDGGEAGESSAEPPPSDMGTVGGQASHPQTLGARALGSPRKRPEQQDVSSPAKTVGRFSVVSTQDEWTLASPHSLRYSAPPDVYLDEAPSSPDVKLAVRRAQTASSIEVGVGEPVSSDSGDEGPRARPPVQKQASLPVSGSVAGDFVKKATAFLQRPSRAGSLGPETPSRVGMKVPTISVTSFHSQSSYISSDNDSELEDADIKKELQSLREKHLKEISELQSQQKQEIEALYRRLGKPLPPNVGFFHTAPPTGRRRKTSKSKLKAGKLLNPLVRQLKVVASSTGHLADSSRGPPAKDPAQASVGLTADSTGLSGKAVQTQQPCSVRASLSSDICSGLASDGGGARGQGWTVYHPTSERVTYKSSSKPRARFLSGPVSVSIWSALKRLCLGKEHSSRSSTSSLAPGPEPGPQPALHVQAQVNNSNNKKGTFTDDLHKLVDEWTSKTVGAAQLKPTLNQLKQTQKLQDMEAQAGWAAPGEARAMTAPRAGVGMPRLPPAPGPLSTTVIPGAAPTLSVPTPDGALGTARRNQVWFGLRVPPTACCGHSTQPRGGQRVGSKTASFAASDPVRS
Sequence of Serine/threonine-protein kinase Nek7 (Homo sapiens) (Q8TDX7 whole entry, looked up): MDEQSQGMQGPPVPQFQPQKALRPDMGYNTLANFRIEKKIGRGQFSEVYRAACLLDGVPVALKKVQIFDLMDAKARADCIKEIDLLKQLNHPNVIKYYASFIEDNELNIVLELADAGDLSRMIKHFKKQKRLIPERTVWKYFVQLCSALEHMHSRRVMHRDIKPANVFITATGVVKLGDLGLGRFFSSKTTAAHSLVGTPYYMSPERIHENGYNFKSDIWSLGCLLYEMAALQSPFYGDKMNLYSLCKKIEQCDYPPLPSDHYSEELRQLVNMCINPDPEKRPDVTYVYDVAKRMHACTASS
Sequence of Glycogen synthase kinase-3 beta (Homo sapiens) (P49841 whole entry, looked up): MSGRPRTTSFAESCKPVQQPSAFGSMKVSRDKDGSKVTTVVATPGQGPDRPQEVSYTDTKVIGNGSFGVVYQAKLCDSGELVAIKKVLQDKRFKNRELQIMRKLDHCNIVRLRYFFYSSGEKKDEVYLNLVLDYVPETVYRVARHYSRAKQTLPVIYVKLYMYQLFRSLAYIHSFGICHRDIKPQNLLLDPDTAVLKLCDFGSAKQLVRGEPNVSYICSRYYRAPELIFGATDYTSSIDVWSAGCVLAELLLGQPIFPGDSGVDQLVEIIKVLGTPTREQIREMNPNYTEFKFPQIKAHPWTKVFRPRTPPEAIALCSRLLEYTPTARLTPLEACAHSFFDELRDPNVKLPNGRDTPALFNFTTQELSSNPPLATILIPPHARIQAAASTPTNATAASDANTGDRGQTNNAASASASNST
Sequence of Homeodomain-interacting protein kinase 2 (Homo sapiens) (Q9H2X6 whole entry, looked up): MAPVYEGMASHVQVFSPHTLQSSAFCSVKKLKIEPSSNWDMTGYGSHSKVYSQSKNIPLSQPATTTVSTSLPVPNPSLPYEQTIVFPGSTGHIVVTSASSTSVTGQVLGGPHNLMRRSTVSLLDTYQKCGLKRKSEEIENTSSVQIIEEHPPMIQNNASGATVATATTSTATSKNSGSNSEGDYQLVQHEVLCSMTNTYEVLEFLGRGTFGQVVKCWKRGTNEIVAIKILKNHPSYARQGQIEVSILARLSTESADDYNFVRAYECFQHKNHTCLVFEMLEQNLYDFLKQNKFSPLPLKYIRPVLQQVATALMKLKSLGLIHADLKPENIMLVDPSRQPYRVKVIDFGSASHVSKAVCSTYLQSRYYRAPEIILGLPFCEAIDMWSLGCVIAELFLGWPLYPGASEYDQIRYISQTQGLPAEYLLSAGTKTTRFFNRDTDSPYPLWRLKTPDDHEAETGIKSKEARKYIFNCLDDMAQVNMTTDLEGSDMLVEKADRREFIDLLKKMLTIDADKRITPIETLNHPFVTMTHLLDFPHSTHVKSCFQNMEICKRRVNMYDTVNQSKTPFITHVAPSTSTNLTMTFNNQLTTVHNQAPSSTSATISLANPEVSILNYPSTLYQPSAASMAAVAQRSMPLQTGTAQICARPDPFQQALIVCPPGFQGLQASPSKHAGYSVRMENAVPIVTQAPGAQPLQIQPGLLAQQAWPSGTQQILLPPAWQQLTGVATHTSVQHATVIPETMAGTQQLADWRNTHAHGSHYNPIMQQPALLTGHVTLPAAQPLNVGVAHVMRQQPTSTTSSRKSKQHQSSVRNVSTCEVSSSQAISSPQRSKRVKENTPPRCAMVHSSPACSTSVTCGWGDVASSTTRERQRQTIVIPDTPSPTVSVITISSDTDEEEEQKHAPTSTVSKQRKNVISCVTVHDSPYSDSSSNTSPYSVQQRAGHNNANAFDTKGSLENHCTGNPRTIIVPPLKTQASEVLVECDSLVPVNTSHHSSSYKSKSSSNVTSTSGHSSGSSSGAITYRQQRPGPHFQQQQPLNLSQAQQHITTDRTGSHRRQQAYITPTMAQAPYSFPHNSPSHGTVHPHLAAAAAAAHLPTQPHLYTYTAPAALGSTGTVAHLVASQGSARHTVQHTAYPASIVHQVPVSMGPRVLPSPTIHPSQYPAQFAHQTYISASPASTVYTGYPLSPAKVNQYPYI
Sequence of Serine/threonine-protein kinase PAK 3 (Homo sapiens) (O75914 whole entry, looked up): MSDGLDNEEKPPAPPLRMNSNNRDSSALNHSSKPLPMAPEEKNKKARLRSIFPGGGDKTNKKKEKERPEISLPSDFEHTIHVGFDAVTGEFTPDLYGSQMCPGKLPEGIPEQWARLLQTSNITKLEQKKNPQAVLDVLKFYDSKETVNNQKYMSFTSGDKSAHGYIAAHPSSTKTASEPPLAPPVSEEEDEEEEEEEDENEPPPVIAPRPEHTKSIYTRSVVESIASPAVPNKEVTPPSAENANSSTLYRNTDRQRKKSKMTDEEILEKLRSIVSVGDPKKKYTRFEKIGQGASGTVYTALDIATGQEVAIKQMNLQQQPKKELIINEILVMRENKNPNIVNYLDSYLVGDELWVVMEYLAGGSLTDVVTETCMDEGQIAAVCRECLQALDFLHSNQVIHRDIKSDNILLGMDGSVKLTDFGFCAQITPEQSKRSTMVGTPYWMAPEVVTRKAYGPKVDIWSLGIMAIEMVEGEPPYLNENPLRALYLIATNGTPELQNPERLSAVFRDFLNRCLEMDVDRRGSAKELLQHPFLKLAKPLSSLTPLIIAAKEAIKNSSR

As to `C[C@]1(O)C[C@@H](c2nc(-c3ccc4ccc(-c5ccccc5)nc4c3)c3c(N)nccn32)C1`, the inhibition in test [1] was -0.98%; in [2], -4.97%; in [3], -6.35%; in [4], 10.8%; in test [5] it was 2.16%.

For the molecule `C[C@@]1(C(=O)Nc2ccc(F)nc2)CCCN1c1nc(Nc2cc(C3CC3)n[nH]2)c2cccn2n1`, the inhibition was 34.6% in test [6]; -1.14% in test [7]; -3.98% in [8]; -5.89% in test [9]; -3.18% in test [10].

One may read the inhibition as the relative decrease from the control value, in per cent.
